Source: patent US10253002B2, “Compounds and methods of treating infections” (Neoculi Pty Ltd., priority 2013, dated 2019)
Converted amounts (≈) assume the structure as drawn. Read-outs that look alike come from different tables or passages of the source.

Test system: MRSA
Test: Broth microdilution MIC, Example 7 (NCL812 and analogues)
Assay type: cell-based, Staphylococcus aureus
How it was run: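 MICs in μg/ml were read as growth inhibition by eye, checked at 600 nm absorbance against drug-free wells, following CLSI broth microdilution. Strains: two MRSA, two VRE; duplicates, repeated once more when results diverged beyond one dilution step.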

`CC1(C)S[C@@H]2[C@H](NC(=O)[C@H](N)c3ccccc3)C(=O)N2[C@H]1C(=O)O` [Ampicillin] gave an MIC (MRSA 610, Phase I, 2nd) of 128 µg/mL (≈ 366 µM), an MIC (MRSA 713, Phase II, 1st) of 128 µg/mL (≈ 366 µM) and an MIC (MRSA 713, Phase II, 2nd) of 128 µg/mL (≈ 366 µM). The MIC (MRSA 778, Phase II, 1st) was 128 µg/mL (≈ 366 µM), the MIC (MRSA 778, Phase II, 2nd) was 128 µg/mL (≈ 366 µM) and the MIC (MRSA 823, Phase II, 1st) was 128 µg/mL (≈ 366 µM). For the same compound, the MIC (MRSA 823, Phase II, 2nd) was 128 µg/mL (≈ 366 µM), the MIC (MRSA 844, Phase I, 1st) was 128 µg/mL (≈ 366 µM) and the MIC (MRSA 844, Phase I, 2nd) was 128 µg/mL (≈ 366 µM). For the same compound, the MIC (Staphylococcus aureus, MRSA, 24 h, read-out: MIC (μg/ml) at 24 hours, MRSA 1, isolate MRSA 1, 24 hours, 1st and 2nd replicate rows) was greater than 128 µg/mL, the MIC (Staphylococcus aureus, MRSA, 24 h, read-out: MIC (μg/ml) at 24 hours, MRSA 2, isolate MRSA 2, 24 hours, 1st and 2nd replicate rows) was 16 µg/mL (≈ 45.8 µM) and the MIC (Staphylococcus aureus, MRSA, MRSA 516, Phase I, 1st, read-out: MIC) was 32 µg/mL (≈ 91.6 µM). The MIC (Staphylococcus aureus, MRSA, MRSA 516, Phase I, 2nd, read-out: MIC) was 32 µg/mL (≈ 91.6 µM), the MIC (Staphylococcus aureus, MRSA, MRSA 516, Phase II, 1st, read-out: MIC) was 32 µg/mL (≈ 91.6 µM) and the MIC (Staphylococcus aureus, MRSA, MRSA 516, Phase II, 2nd, read-out: MIC) was 16 µg/mL (≈ 45.8 µM). The MIC (Staphylococcus aureus, MRSA, MRSA 570, Phase I, 1st, read-out: MIC) was greater than 128 µg/mL, the MIC (Staphylococcus aureus, MRSA, MRSA 570, Phase I, 2nd, read-out: MIC) was greater than 128 µg/mL and the MIC (Staphylococcus aureus, MRSA, MRSA 570, Phase II, 1st, read-out: MIC) was greater than 128 µg/mL. It also gave an MIC (Staphylococcus aureus, MRSA, MRSA 570, Phase II, 2nd, read-out: MIC) greater than 128 µg/mL, an MIC (Staphylococcus aureus, MRSA, MRSA 580, Phase I, 1st, read-out: MIC) greater than 128 µg/mL and an MIC (Staphylococcus aureus, MRSA, MRSA 580, Phase I, 2nd, read-out: MIC) greater than 128 µg/mL. It also gave an MIC (Staphylococcus aureus, MRSA, MRSA 580, Phase II, 1st, read-out: MIC) greater than 128 µg/mL, an MIC (Staphylococcus aureus, MRSA, MRSA 580, Phase II, 2nd, read-out: MIC) greater than 128 µg/mL and an MIC (Staphylococcus aureus, MRSA, MRSA 606, Phase I, 1st, read-out: MIC) of 32 µg/mL (≈ 91.6 µM). For the same compound, the MIC (Staphylococcus aureus, MRSA, MRSA 606, Phase I, 2nd, read-out: MIC) was 32 µg/mL (≈ 91.6 µM), the MIC (Staphylococcus aureus, MRSA, MRSA 606, Phase II, 1st, read-out: MIC) was 32 µg/mL (≈ 91.6 µM) and the MIC (Staphylococcus aureus, MRSA, MRSA 606, Phase II, 2nd, read-out: MIC) was 32 µg/mL (≈ 91.6 µM). For the same compound, the MIC (Staphylococcus aureus, MRSA, MRSA 610, Phase II, 1st, read-out: MIC) was 32 µg/mL (≈ 91.6 µM), the MIC (Staphylococcus aureus, MRSA, MRSA 610, Phase II, 2nd, read-out: MIC) was 32 µg/mL (≈ 91.6 µM) and the MIC (Staphylococcus aureus, MRSA, MRSA 616, Phase I, 1st, read-out: MIC) was 64 µg/mL (≈ 183 µM). The MIC (Staphylococcus aureus, MRSA, MRSA 616, Phase I, 2nd, read-out: MIC) was 64 µg/mL (≈ 183 µM), the MIC (Staphylococcus aureus, MRSA, MRSA 616, Phase II, 1st, read-out: MIC) was 64 µg/mL (≈ 183 µM) and the MIC (Staphylococcus aureus, MRSA, MRSA 616, Phase II, 2nd, read-out: MIC) was 64 µg/mL (≈ 183 µM). For the same compound, the MIC (Staphylococcus aureus, MRSA, MRSA 622, Phase I, 1st, read-out: MIC) was 64 µg/mL (≈ 183 µM), the MIC (Staphylococcus aureus, MRSA, MRSA 622, Phase I, 2nd, read-out: MIC) was 64 µg/mL (≈ 183 µM) and the MIC (Staphylococcus aureus, MRSA, MRSA 622, Phase II, 1st, read-out: MIC) was 32 µg/mL (≈ 91.6 µM). It also gave an MIC (Staphylococcus aureus, MRSA, MRSA 622, Phase II, 2nd, read-out: MIC) of 32 µg/mL (≈ 91.6 µM), an MIC (Staphylococcus aureus, MRSA, MRSA 698, Phase I, 1st, read-out: MIC) of 64 µg/mL (≈ 183 µM) and an MIC (Staphylococcus aureus, MRSA, MRSA 698, Phase I, 2nd, read-out: MIC) of 64 µg/mL (≈ 183 µM). It also gave an MIC (Staphylococcus aureus, MRSA, MRSA 698, Phase II, 1st, read-out: MIC) of 8 µg/mL (≈ 22.9 µM), an MIC (Staphylococcus aureus, MRSA, MRSA 698, Phase II, 2nd, read-out: MIC) of 8 µg/mL (≈ 22.9 µM) and an MIC (Staphylococcus aureus, MRSA, MRSA 713, Phase I, 1st, read-out: MIC) greater than 128 µg/mL. For the same compound, the MIC (Staphylococcus aureus, MRSA, MRSA 713, Phase I, 2nd, read-out: MIC) was greater than 128 µg/mL, the MIC (Staphylococcus aureus, MRSA, MRSA 718, Phase I, 1st, read-out: MIC) was greater than 128 µg/mL and the MIC (Staphylococcus aureus, MRSA, MRSA 718, Phase I, 2nd, read-out: MIC) was greater than 128 µg/mL. It also gave an MIC (Staphylococcus aureus, MRSA, MRSA 718, Phase II, 1st, read-out: MIC) of 64 µg/mL (≈ 183 µM), an MIC (Staphylococcus aureus, MRSA, MRSA 718, Phase II, 2nd, read-out: MIC) of 64 µg/mL (≈ 183 µM) and an MIC (Staphylococcus aureus, MRSA, MRSA 728, Phase I, 1st, read-out: MIC) of 64 µg/mL (≈ 183 µM). For the same compound, the MIC (Staphylococcus aureus, MRSA, MRSA 728, Phase I, 2nd, read-out: MIC) was 64 µg/mL (≈ 183 µM), the MIC (Staphylococcus aureus, MRSA, MRSA 728, Phase II, 1st, read-out: MIC) was 32 µg/mL (≈ 91.6 µM) and the MIC (Staphylococcus aureus, MRSA, MRSA 728, Phase II, 2nd, read-out: MIC) was 32 µg/mL (≈ 91.6 µM). For the same compound, the MIC (Staphylococcus aureus, MRSA, MRSA 734, Phase I, 1st, read-out: MIC) was greater than 128 µg/mL, the MIC (Staphylococcus aureus, MRSA, MRSA 734, Phase I, 2nd, read-out: MIC) was greater than 128 µg/mL and the MIC (Staphylococcus aureus, MRSA, MRSA 734, Phase II, 1st, read-out: MIC) was 64 µg/mL (≈ 183 µM). The MIC (Staphylococcus aureus, MRSA, MRSA 734, Phase II, 2nd, read-out: MIC) was 64 µg/mL (≈ 183 µM), the MIC (Staphylococcus aureus, MRSA, MRSA 741, Phase I, 1st, read-out: MIC) was 8 µg/mL (≈ 22.9 µM) and the MIC (Staphylococcus aureus, MRSA, MRSA 741, Phase I, 2nd, read-out: MIC) was 8 µg/mL (≈ 22.9 µM). The MIC (Staphylococcus aureus, MRSA, MRSA 741, Phase II, 1st, read-out: MIC) was 4 µg/mL (≈ 11.4 µM), the MIC (Staphylococcus aureus, MRSA, MRSA 741, Phase II, 2nd, read-out: MIC) was 4 µg/mL (≈ 11.4 µM) and the MIC (Staphylococcus aureus, MRSA, MRSA 747, Phase I, 1st, read-out: MIC) was greater than 128 µg/mL. It also gave an MIC (Staphylococcus aureus, MRSA, MRSA 747, Phase I, 2nd, read-out: MIC) greater than 128 µg/mL, an MIC (Staphylococcus aureus, MRSA, MRSA 747, Phase II, 1st, read-out: MIC) of 64 µg/mL (≈ 183 µM) and an MIC (Staphylococcus aureus, MRSA, MRSA 747, Phase II, 2nd, read-out: MIC) of 64 µg/mL (≈ 183 µM). The MIC (Staphylococcus aureus, MRSA, MRSA 773, Phase I, 1st, read-out: MIC) was 64 µg/mL (≈ 183 µM).
